In PubChem BioAssay (NCI):
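A five-concentration, 48-hour dose response in 96-well plates underlies each endpoint, interpolated linearly between surrounding concentrations. GI50 = concentration required for 50% inhibition of growth. TGI denotes the concentration required for complete inhibition of growth.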

Legend:
Assay in all cases: growth of human tumour cells (NCI), 48 h
786-0 renal = system: 786-0 renal
MDA-MB-231 breast = system: MDA-MB-231 breast
A549 NSCLC = system: A549 NSCLC
MCF7 breast = system: MCF7 breast
IGROV1 ovarian = system: IGROV1 ovarian
SK-OV-3 ovarian = system: SK-OV-3 ovarian
SNB-75 CNS = system: SNB-75 CNS
SNB-19 CNS = system: SNB-19 CNS
OVCAR-3 ovarian = system: OVCAR-3 ovarian
BT-549 breast = system: BT-549 breast

Structure (SMILES)	GI50 (786-0 renal)	TGI (786-0 renal)	GI50 (MDA-MB-231 breast)	TGI (MDA-MB-231 breast)	GI50 (A549 NSCLC)	TGI (A549 NSCLC)	GI50 (MCF7 breast)	TGI (MCF7 breast)	GI50 (IGROV1 ovarian)	TGI (IGROV1 ovarian)	GI50 (SK-OV-3 ovarian)	TGI (SK-OV-3 ovarian)	GI50 (SNB-75 CNS)	TGI (SNB-75 CNS)	GI50 (SNB-19 CNS)	TGI (SNB-19 CNS)	GI50 (OVCAR-3 ovarian)	TGI (OVCAR-3 ovarian)	GI50 (BT-549 breast)	TGI (BT-549 breast)
COc1ccc(/C=C\c2cc(OC)c(OC)c(OC)c2)cc1OCC(=O)Nc1nc2ccc(C(F)(F)F)cc2s1	6.69 µM	> 100 µM	3.38 µM	> 100 µM	4.46 µM	> 100 µM	3.16 µM	65.1 µM	4.48 µM	> 100 µM	3.29 µM	17.2 µM	1.58 µM	6.47 µM	5.03 µM	> 100 µM	2.11 µM	4.51 µM	5.23 µM	> 100 µM
O=C1C=Cc2ccccc2/C1=C/c1[nH]c(=O)[nH]c1O	5.41 µM	29.5 µM	13.2 µM	84.3 µM	19.8 µM	61.6 µM	2.4 µM	15.2 µM	1.39 µM	26.6 µM	3.66 µM	23.2 µM	2.14 µM	7.44 µM	3.49 µM	16.6 µM	2.51 µM	7.73 µM	6.75 µM	96.3 µM
O=C(Nc1ncc(Cc2ccccc2Cl)s1)c1ccc2c(c1)OCCO2	0.574 µM	> 100 µM	0.38 µM	8.76 µM	0.466 µM	> 100 µM	0.32 µM	> 100 µM	0.498 µM	> 57.8 µM	0.537 µM	22.6 µM	0.262 µM	6.55 µM	0.548 µM	> 45.5 µM	0.285 µM	1.07 µM	0.567 µM	> 100 µM
COc1ccc(-c2nc(-c3cn(C)c4ncccc34)cs2)cc1	51.5 µM	> 100 µM	75.3 µM	> 100 µM	76.1 µM	> 100 µM	12.5 µM	> 100 µM	> 100 µM	> 100 µM	> 100 µM	> 100 µM	> 100 µM	> 100 µM	> 100 µM	> 100 µM	41.6 µM	> 100 µM	68 µM	> 100 µM
O=C(CCCn1ccnc1[N+](=O)[O-])NCCn1ccnc1	–	> 100 µM	–	> 100 µM	–	> 100 µM	–	> 100 µM	–	> 100 µM	–	> 100 µM	–	> 100 µM	–	> 100 µM	–	> 100 µM	–	> 100 µM
CC1(C)N=C(N)N=C(N)N1c1cc(Cl)ccc1Cl	> 100 µM	> 100 µM	> 100 µM	> 100 µM	> 100 µM	> 100 µM	> 100 µM	> 100 µM	27.6 µM	88.6 µM	> 100 µM	> 100 µM	> 100 µM	> 100 µM	> 100 µM	> 100 µM	53.1 µM	> 100 µM	> 100 µM	> 100 µM
